How the values were obtained:
[1] = women following three consecutive SC injections; cited from earlier work
[2] = rabbits or mice, cited from earlier work
[3] = system: mouse primary medium spiny neurons in mixed glial co-culture; experiment: Tat and/or gp120 neurotoxicity (necrosis, propidium iodide) in neuron/mixed glia co-culture; format: cell-based; conditions: for baseline cell death: highest concentrations; for Tat and/or gp120-mediated necrosis / neurotoxicity: pretreatment, 0.001-10×10^3 nM, HIV-1 Tat and/or gp120 for 20 h
Method: The trans-diol analogue of 3α, 5α-THP, 5α-pregnan-2β,3α-diol-20-one (compound 1) was synthesized. Mixed glia (derived from 0-1 day old mouse pups) and primary medium spiny neurons (from the striatum of E17 pups) were co-cultured as previously described. Co-cultures were pretreated with a concentration-response curve (0.001-10×10^3 nM) of 3α,5α-THP or the analogue, 1, and exposed to HIV-1 Tat and/or gp120 for 20 h. Prior time-lapse experiments have identified this time-point as the earliest time at which 3α,5α-THP protection is evident. Each treatment group consisted of 3 independent observations (with 2 technical replicates each). Necrotic cells were identified via propidium iodide labeling.

HIV-1BaL = experiment: anti-viremic capacity: HIV-1BaL replication in primary human microglia, p24 accumulation; format: cell-based; conditions: for HIV-1BaL replication, accumulation of p24 HIV capsid protein: HIV-1BaL 1 ng/mL p24, over 10 days; for effect on efficacy of cART when co-administered: co-administered with cART
Method: […] Corp.) as described previously.
Assessment for viremia: Media, compounds 1-6, or 3α,5α-THP was assessed in a dose-response curve (0.1, 0.3, 1, 3.2, 10, 32, 100, 320, 1×10^3, 10×10^3, 100×10^3 nM) for their anti-viremic capacity (FIG. 9). To monitor infection, samples are taken every 72 h to measure p24 or proviral DNA129-130. Infection was confirmed post-hoc via immunocytochemical imaging of HIV-1 negative regulatory factor (Nef). As needed, TZM-bl and Jurkat reporter cells were also used to determine viral proliferation.
Interactions with cART: Efficacious concentrations were re-assessed in separate mock- or HIV-1BaL-infected cultures in the presence or absence of Triumeq® [Abacavir (ABC; 10 μM)/dolutegravir (DTG; 1 nM)/lamivudine (3TC; 30 μM) dosing derived from FDA-approved insert] to assess interactions with viremic control, cytotoxicity, and cytokine production.

[4] = system: primary, mouse splenocytes; experiment: mitogen-stimulated proliferation of splenocytes; format: cell-based; conditions: high concentrations
[5] = biological target: HIV-1 trans-activation response element; conditions: read-out: affinity; cited from earlier work

## CC(=O)[C@H]1CC[C@H]2[C@@H]3CC[C@H]4C[C@H](O)CC[C@]4(C)[C@H]3CC[C@]12C [3α,5α-THP, 5α-pregnan-3α-ol-20-one]
[1]
  plasma clearance: ~4 h
[2]; administered subcutaneously
  elimination half-life (t1/2z): 0.2 to 0.667 h
[2]; infused IV
  elimination half-life (t1/2z) in brain: ~4 h
[3]; at 10 nM
  increase in cell death: 5.7%
[3]
  baseline cell death: increased baseline cell death modestly
  Tat and/or gp120-mediated necrosis / neurotoxicity: significantly attenuated necrosis at every dose assessed
HIV-1BaL
  HIV-1BaL replication, accumulation of p24 HIV capsid protein: attenuates
  effect on efficacy of cART when co-administered: Neither AlloP nor 1 impairs the efficacy of cART

## CC(=O)[C@H]1CC[C@H]2[C@@H]3CC[C@H]4C[C@H](O)[C@@H](O)C[C@]4(C)[C@H]3CC[C@]12C [compound 1, 2β,3α-dihydroxy-5α-pregnan-20-one]
[3]
  potency in ameliorating Tat-neurotoxicity relative to 3α,5α-THP: equipotent to 3α,5α-THP
  baseline cell death: increased baseline cell death modestly
[3]; at 1 nM
  increase in cell death: 8.8%
[3]; at 10 nM
  increase in cell death: 10.5%
[3]; listed as analogue 1
  Tat and/or gp120-mediated necrosis / neurotoxicity: significantly attenuated necrosis at every dose assessed
HIV-1BaL
  HIV-1BaL replication, accumulation of p24 HIV capsid protein: attenuates
  effect on efficacy of cART when co-administered: Neither AlloP nor 1 impairs the efficacy of cART

## C[C@]12C[C@H](O)[C@H]3[C@@H](CCC4=CC(=O)CC[C@@]43C)[C@@H]1CC[C@@H]2C(=O)CO [corticosterone]
[4]
  mitogen-stimulated proliferation: reduce mitogen-stimulated proliferation

## CN(C)[C@H]1C[C@@]23CC[C@@]4(O2)C(=CC[C@]2(C)C(c5ccc6ccncc6c5)=CC[C@H]24)C=C3[C@@H](O)[C@@H]1O [dCA, didehydro-cortistatin A]
[5]
  Kd: 1 to 2 nM

Reference: patent US20250000875A1, “ALLOPREGNANOLONE ANALOGUES FOR HIV VIREMIA AND NEUROTOXICITY PROTECTION” (priority 2021, published 2025)
